Test results from patent EP2518500A1, “In vitro method for determining developmental toxicity of a compound” (priority 2011, dated 2012).
Where two headings read alike, the source gives them in different places.

How the values were obtained:
[1] = system: si:rp71-39b20.7; test: Microarray gene expression in zebrafish embryos exposed to compound, si:rp71-39b20.7; settings: 24 hpf; embryos exposed at BMCGMS20 (PAA equimolar to MAA and EAA); relative to DMSO-exposed control; negative = downregulation, positive = upregulation
[2] = system: hspb12; test: Microarray gene expression in zebrafish embryos exposed to compound, hspb12; settings: 24 hpf; embryos exposed at BMCGMS20 (PAA equimolar to MAA and EAA); relative to DMSO-exposed control; negative = downregulation, positive = upregulation
[3] = system: vmhc; test: Microarray gene expression in zebrafish embryos exposed to compound, vmhc; settings: 24 hpf; embryos exposed at BMCGMS20 (PAA equimolar to MAA and EAA); relative to DMSO-exposed control; negative = downregulation, positive = upregulation
[4] = system: cyp26a1; test: Microarray gene expression in zebrafish embryos exposed to compound, cyp26a1; settings: 24 hpf; embryos exposed at BMCGMS20 (PAA equimolar to MAA and EAA); relative to DMSO-exposed control; negative = downregulation, positive = upregulation
[5] = system: zebrafish embryos; test: Method of the invention: developmental toxicity from expression of the 4 genes in exposed zebrafish embryos; settings: for fold ratio (FR) (either up- or downregulated): all 4 genes (cyp26a1, si:rp71-39b20.7, vmhc, hspb12), 24 hpf microarray, compound versus DMSO control
[6] = system: zebrafish embryos; settings: zebrafish (Danio rerio), in vivo, 24 hpf
[7] = system: si:rp71-39b20.7; settings: zebrafish (Danio rerio), in vivo, 24 hpf
[8] = system: hspb12; settings: zebrafish (Danio rerio), in vivo, 24 hpf
[9] = system: vmhc; settings: zebrafish (Danio rerio), in vivo, 24 hpf
[10] = system: cyp26a1; settings: zebrafish (Danio rerio), in vivo, 24 hpf
[11] = system: zebrafish embryos; settings: concentration range, three independent runs, evaluated at 72 hpf; previous study [11]; cited from earlier work

C[Si](Cn1cncn1)(c1ccc(F)cc1)c1ccc(F)cc1 [FLU, flusilazole]
Fold ratio (FR) si:rp71-39b20.7 [1]: -1.514 | Fold ratio (FR) hspb12 [2]: -2.182 | Fold ratio (FR) vmhc [3]: -1.784 | Fold ratio (FR) cyp26a1 [4]: 3.452 | fold ratio (FR) (either up- or downregulated) [5]: > 1.5

COCC(=O)O [MAA, methoxyacetic acid]
fold ratio (FR) (either up- or downregulated) [6]: > 1.5 | Fold ratio (FR) si:rp71-39b20.7 [7]: -1.996 | Fold ratio (FR) hspb12 [8]: -3.449 | Fold ratio (FR) vmhc [9]: -2.946 | Fold ratio (FR) cyp26a1 [10]: 1.722

CCOCC(=O)O [EAA, ethoxyacetic acid]
Fold ratio (FR) si:rp71-39b20.7 [1]: -2.183 | Fold ratio (FR) hspb12 [2]: -16.913 | Fold ratio (FR) vmhc [3]: -4.629 | Fold ratio (FR) cyp26a1 [4]: 2.648 | fold ratio (FR) (either up- or downregulated) [5]: > 1.5

O=C(O)COc1ccccc1 [PAA, phenoxyacetic acid]
Fold ratio (FR) si:rp71-39b20.7 [1]: -1.098 | Fold ratio (FR) hspb12 [2]: -1.135 | effects in the ZET (GMS) [11]: no effects | Fold ratio (FR) vmhc [3]: -1.102 | Fold ratio (FR) cyp26a1 [4]: -1.009 | fold ratio (FR) (either up- or downregulated) [5]: < 1.2 | developmental toxicity classification in the method according to the invention ([5]; gene expression in zebrafish embryos, 24 hours after fertilization): non-developmentally toxic

CC(C1CC1)C(O)(Cn1cncn1)c1ccc(Cl)cc1 (stereo not drawn) [CYP, cyproconazole]
Fold ratio (FR) si:rp71-39b20.7 [1]: -1.544 | Fold ratio (FR) hspb12 [2]: -1.531 | Fold ratio (FR) vmhc [3]: -1.759 | Fold ratio (FR) cyp26a1 [4]: 3.745 | fold ratio (FR) (either up- or downregulated) [5]: > 1.5
